Source: patent publication US8629132B2, “Kinase inhibitors” (Genosco, priority 2009, dated 2014)
“Also recorded” adds a separate entry of the source. Structures can show the parent of a compound that is named as a salt.

Experiments:
[1] = target: T1, SYK (Homo sapiens, UniProt P43405); assay: Kinase inhibition assay: SYK; format: biochemical
T1 construct: Purified full-length human SYK, ZAP70, PIM1, PYK2; purchased Carna Biosciences
Method: (§1) Compounds of the present invention were tested for their capacity to inhibit a kinase panel which includes, but are not limited to, spleen tyrosine kinase (SYK), zeta-chain-associated protein kinase 70 (ZAP70), PTK2B protein tyrosine kinase 2 (PYK2), focal adhesion kinase (FAK), provirus integration of maloney kinase 1 (PIM1), rearranged during transfection kinase (RET), Fms-like tyrosine kinase 3 (FLT3), Janus kinase 2 (JAK2), and leucine-rich repeat kinase 2 (LRRK2).
(§2) Inhibition of SYK, ZAP70, PYK2, FAK, PIM1, RET, FLT3, JAK2 and LRRK2 Kinase Activity
(§3) Compounds of the invention were initially diluted to 10 mM in 100% DMSO (CALBIOCHEM™) for storage and made into kinase buffer solution to create a compound concentration ranging from 1 uM and 10 uM. Serial dilutions of compounds of the invention were dispensed into a 96-well plate (GREINER BIOSCIENCES™) at 6 μL each. Purified full-length human SYK, ZAP70, PIM1, PYK2 and truncated human FAK, RET, FLT3, JAK2, and LRRK2 (CARNA BIOSCIENCES™) were diluted in kinase buffer and added to the compound solutions and pre-incubated for 30 minutes at room temperature (1 hour for PYK2). […] The reaction mixture was incubated for 1 hour (2 hours for PYK2). Following the incubation, the stop solution made with EDTA, water, and Lance detection buffer ([…]™) was added (12μL each) to stop phosphorylation. […] The IC50 value of test compound was calculated at Gradpad Prism 5 unless specified otherwise.

[2] = test system: TNF-α release in THP-1 cells; assay: SYK independent TNF-α release assay (LPS stimulation); format: cell-based; settings: Homo sapiens, 18-hour incubation
Method: (§4) Compounds of the present invention are tested for their effects on TNF-α release in human acute monocytic leukimia cell line (THP-1) to illustrate potential efficacy at the cellular level. TNF-α is a cytokine involved in systemic inflammation and is a member of a group of cytokines that stimulate the acute phase reaction. The primary role of TNF-α is in the regulation of immune cells. TNF-α is known to induce apoptotic cell death and inflammation and to inhibit early tumorigenesis and viral replication. Dysregulation and, in particular, overproduction of TNF-α have been implicated in a variety of human diseases, autoimmune disease, inflammation, arthritis and cancer.
(§5) Production or release of TNF-α is controlled by type of stimulus to which the cell responds. SYK activity is involved in mediating TNF-α production. When stimulated by IgG, cells increase TNF-α production in a SYK dependent manner (i.e., the SYK dependent pathway). However, when stimulated by lipopolysaccharide (LPS), they produce TNF-α in a SYK independent manner.
For SYK independent TNF-α release assay (i.e., via lipopolysaccharide (LPS)-stimulation), THP-1 cells derived from human monocytic cells were obtained from the American Type Culture Collection (ATCC, Manassas, Va.). This cell line was maintained with an RPMI medium (GIBCO™) containing 10 fetal bovine serum (FBS, GIBCO™) and 0.05 mM 2-mercaptoethanol. The THP-1 cells were seeded at 1×10^5 cells/100 μL/well into 96-well culture plates, and treated with lipopolysaccharide (1 μg/ml), and serially diluted compound was then added. After an 18-hour incubation period at 37° C., supernatants were collected for the determination of the TNF-α level by ELISA, and the remaining cells were subjected to an MTT assay to determine the cytotoxic effects.

[3] = test system: TNF-α release in THP-1 cells; assay: SYK dependent TNF-α release assay (IgG stimulation); format: cell-based, human; settings: for inhibition at 0.3 µM / inhibition at 1 µM: Homo sapiens; for percentage inhibition of TNF-α release compared with R406: IgG stimulated release
Method: as §4, §5
Compounds of the invention were tested for their TNF-α release effect on THP-1 cells. For SYK dependent TNF-α release assay (i.e., via IgG stimulation), THP-1 cells derived from human monocytic cells were obtained from the American Type Culture Collection (ATCC, Manassas, Va.). This cell line was maintained with an Roswell Park Memorial Institute (RPMI) medium (GIBCO™) containing 10 fetal bovine serum (FBS; GIBCO™) and 0.05 mM 2-mercaptoethanol. The THP-1 cells were seeded at 1×10^5 cells/100 μL/well into human IgG (10 μg/well, INVITROGENT™)-coated 96 well culture plate, and serially diluted compound was then added. After an 18-hour incubation period at 37° C., supernatants were collected for the determination of the TNF-α level by enzyme-linked immunosorbent assay (ELISA), and the remaining cells were subjected to an MTT (yellow tetrazolium salt) assay to determine the cytotoxic effects of compound.

[4] = target: JAK2 (Homo sapiens, UniProt O60674); assay: Kinase inhibition assay: JAK2; format: biochemical; parameters: truncated human FAK, RET, FLT3, JAK2, and LRRK2; purchased Carna Biosciences
Method: as §1, §2, §3

[5] = test system: MV4-11 cells; assay: Cell viability assay: FLT3-ITD-positive cells; format: cell-based, human; settings: for IC50: Homo sapiens, MV4-11, 72-hour incubation, read-out: Viability of FLT3-ITD Induced Cancer Cell Line MV-4-11 (IC50 nM)
Method: Compounds of the invention were tested for their effects on inhibition of FLT3-ITD in human acute leukemia cell line (MV4-11). FLT3 is primarily expressed in immature hematopoietic progenitor as well as in mature myeloid cells. It belongs to type III receptor tyrosine kinase (RTK) family including KIT, FMS, and PDGFR. It is activated by binding to FL, which leads to increased kinase activity and activation of downstream signaling pathway including STATS, Ras, and PI3Kinase.
Compounds of the invention were tested for cell viability effect on MV4-11 cells. For cell viability assay, MV4-11 cells expressing human FLT3-ITD were obtained from the American Type Culture Collection (ATCC, Manassas, Va.). This cell line was maintained with an Roswell Park Memorial Institute (RPMI) medium (HyClone™) containing 10 bovine calf serum (BCS; Hyclone™) supplemented iron. The MV4-11 cells were seeded at 2×10^4 cells in 96-well culture plates, and serially diluted compound was then added. After a 72-hour incubation period at 37° C., cell viability was measured using the ATPLite 1 step assay (Perkin-Elmer™) that is based on the quantification of ATP from viable cells. CellTiter Aqueous assay (Promega™) was also performed in parallel as an orthogonal assay. IC50 values were calculated using nonlinear regression and defined as the concentration needed for a 50 reduction in luminescence or absorbance treated versus untreated control cells (Prism™ Software).

[6] = target: T2, RET (Homo sapiens, UniProt P07949); assay: Kinase inhibition assay: RET; format: biochemical
T2 construct: truncated human FAK, RET, FLT3, JAK2, and LRRK2; purchased Carna Biosciences
T2 sequence (P07949 658-1114 limits assumed): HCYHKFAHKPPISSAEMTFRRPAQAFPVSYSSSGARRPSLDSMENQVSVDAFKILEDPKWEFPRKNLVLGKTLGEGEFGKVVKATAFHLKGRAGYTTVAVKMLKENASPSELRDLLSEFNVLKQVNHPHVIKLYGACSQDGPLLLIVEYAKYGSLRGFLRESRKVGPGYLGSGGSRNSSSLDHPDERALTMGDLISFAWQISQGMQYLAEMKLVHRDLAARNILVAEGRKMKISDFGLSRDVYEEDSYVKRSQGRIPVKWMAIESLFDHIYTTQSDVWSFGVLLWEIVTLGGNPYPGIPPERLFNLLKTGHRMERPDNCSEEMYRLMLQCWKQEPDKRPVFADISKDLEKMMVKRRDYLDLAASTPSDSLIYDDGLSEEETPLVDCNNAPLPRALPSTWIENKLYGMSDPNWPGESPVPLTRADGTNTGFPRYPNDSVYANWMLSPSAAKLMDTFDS
Method: as §1, §2, §3

[7] = target: T3, FLT3 (Homo sapiens, UniProt P36888); assay: Kinase inhibition assay: FLT3; format: biochemical
T3 construct: truncated human FAK, RET, FLT3, JAK2, and LRRK2; purchased Carna Biosciences
T3 sequence (P36888 564-993 limits assumed): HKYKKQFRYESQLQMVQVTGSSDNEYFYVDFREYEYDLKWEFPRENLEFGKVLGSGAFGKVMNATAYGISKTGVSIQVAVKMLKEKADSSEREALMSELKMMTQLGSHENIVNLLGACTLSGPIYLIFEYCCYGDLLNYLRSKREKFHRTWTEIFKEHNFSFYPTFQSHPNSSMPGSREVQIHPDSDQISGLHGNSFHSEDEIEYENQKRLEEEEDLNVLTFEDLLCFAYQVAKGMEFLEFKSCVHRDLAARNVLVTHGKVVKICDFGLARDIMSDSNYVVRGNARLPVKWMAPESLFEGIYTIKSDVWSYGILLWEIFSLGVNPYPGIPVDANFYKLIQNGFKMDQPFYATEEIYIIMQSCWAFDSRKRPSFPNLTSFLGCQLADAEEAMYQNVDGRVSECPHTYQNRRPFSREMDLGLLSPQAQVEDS
Method: as §1, §2, §3

[8] = THP-1 cells, IgG stimulation, 0.3 μM, 18-hour incubation
[9] = THP-1 cells, IgG stimulation, 1 μM, 18-hour incubation

Sequence of JAK2 (O60674 826-1132 limits assumed): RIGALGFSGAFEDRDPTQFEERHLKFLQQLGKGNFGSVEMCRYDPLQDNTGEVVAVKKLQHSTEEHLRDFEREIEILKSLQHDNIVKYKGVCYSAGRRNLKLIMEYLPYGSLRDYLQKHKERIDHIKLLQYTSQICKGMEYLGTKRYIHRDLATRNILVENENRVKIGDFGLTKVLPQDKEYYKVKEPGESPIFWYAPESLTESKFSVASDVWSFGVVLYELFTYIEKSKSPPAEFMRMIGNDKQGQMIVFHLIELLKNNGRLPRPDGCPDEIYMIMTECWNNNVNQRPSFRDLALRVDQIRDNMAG

| SMILES | inhibition at 0.3 µM [2] [%] | inhibition at 1 µM [2] [%] | inhibition at 0.3 µM [3, 8] [%] | inhibition at 1 µM [3, 9] [%] | further results |
| --- | --- | --- | --- | --- | --- |
| Cc1cc(Nc2nccc(-n3cc(CN4CC[C@@H](O)C4)c(C)n3)n2)cc(C)c1OCCN1CCCC1 [Compound 46, (R)-1-((1-(2-(3,5-dimethyl-4-(2-(pyrrolidin-1-yl)ethoxy)phenyl-amino)pyrimidin-4-yl)-3-methyl-1H-pyrazol-4-yl)methyl)pyrrolidin-3-ol] | – | – | – | – | IC50 [1]: 5.9 nM |
| Cc1cn(-c2ccnc(Nc3ccc4c(ccn4C)c3)n2)cc1CN1CC(O)C1 [Compound 52, 1-((4-methyl-1-(2-(1-methyl-1H-indol-5-ylamino)pyrimidin-4-yl)-1H-pyrrol-3-yl)methyl)azetidin-3-ol] | – | – | – | – | IC50 [1]: 3.5 nM |
| Cc1cc(C)cc(Nc2ncc(F)c(-n3cc(CN(C)C)c(C)n3)n2)c1 [Compound 77, 4-(4-((dimethylamino)methyl)-3-methyl-1H-pyrazol-1-yl)-N-(3,5-dimethylphenyl)-5-fluoropyrimidin-2-amine] | 42.2 | 36 | 35.3 | 69.5 | – |
| Cc1cc(C)cc(Nc2ncc(F)c(-n3cc(C)c(CN(C)C)c3)n2)c1 [Compound 80, 4-(3-((dimethylamino)methyl)-4-methyl-1H-pyrrol-1-yl)-N-(3,5-dimethylphenyl)-5-fluoropyrimidin-2-amine] | 8.2 | 12.5 | 51.5 | 91.1 | – |
| COc1cc(Nc2ncc(C)c(-n3cc(C)c(CN4CC(OC(=O)C(C)(C)C)C4)c3)n2)cc(OC)c1OC [Compound 93, 1-((4-methyl-1-(5-methyl-2-(3,4,5-trimethoxyphenylamino)pyrimidin-4-yl)-1H-pyrrol-3-yl)methyl)azetidin-3-yl pivalate] | – | – | – | – | IC50 [4]: 219 nM; inhibition level compared with Vandetinib and Sunitinib ([5]; FLT3 ITD induced cancer cell line (MV4-11)): greater than those exhibited by Vandetinib and Sunitinib; IC50 [5]: 0.6 nM; IC50 [6]: 76.1 nM; IC50 [7]: 11.7 nM |
| COc1cc(Nc2ncc(C)c(-n3cc(C)c(CN4CCCNCC4)c3)n2)cc(OC)c1OC [Compound 96, 4-(3-((1,4-diazepan-1-yl)methyl)-4-methyl-1H-pyrrol-1-yl)-5-methyl-N-(3,4,5-trimethoxyphenyl)pyrimidin-2-amine trihydrochloride] | – | – | – | – | IC50 [4]: 3.9 nM; IC50 [5]: 12.5 nM; IC50 [6]: 10.1 nM; IC50 [7]: 0.53 nM |
| Cc1cc(C)cc(Nc2ncc(F)c(-n3ccc(CN(C)C)c3)n2)c1 [Compound 132, 4-(3-((dimethylamino)methyl)-1H-pyrrol-1-yl)-N-(3,5-dimethylphenyl)-5-fluoropyrimidin-2-amine] | 3.1 | 8.2 | 85.9 | 94.5 | percentage inhibition of TNF-α release compared with R406 ([3]; 0.3 μM): greater that those exhibited by R406 |
| Cc1cc(C)cc(Nc2ncc(F)c(-n3ccc(CN4CC[C@@H](O)C4)c3)n2)c1 [Compound 133, (R)-1-((1-(2-(3,5-dimethylphenyl-amino)-5-fluoropyrimidin-4-yl)-1H-pyrrol-3-yl)methyl)pyrrolidin-3-ol] | 13.8 | 14.2 | 86.3 | 99.4 | percentage inhibition of TNF-α release compared with R406 ([3]; 0.3 μM): greater that those exhibited by R406; also recorded: greater percentage inhibition |
| COc1cc(Nc2ncc(F)c(Nc3ccc4c(n3)NC(=O)C(C)(C)O4)n2)cc(OC)c1OC [Compound R406, R406, reference compound] | – | – | – | – | TNF-α Release Inhibition, IgG stimulation, At 0.3 μM [3, 8]: 49.9%; TNF-α Release Inhibition, IgG stimulation, At 1 μM [3, 9]: 87.4% |
| C[C@@H]1C[C@H]2[C@@H]3CCC4=CC(=O)C=C[C@]4(C)[C@@]3(F)[C@@H](O)C[C@]2(C)[C@@]1(O)C(=O)CO [Dexamethasone, reference compound] | – | 68.4 | – | – | – |
| CCN(CC)CCNC(=O)c1c(C)[nH]c(/C=C2\C(=O)Nc3ccc(F)cc32)c1C [Sunitinib, reference compound] | – | – | – | – | IC50 [5]: 3.8 nM |
